The source of these data is US20250188085A1, “COMPOSITIONS AND METHODS FOR INHIBITION OF RAS” (THERAS, INC., priority 2022, published 2025).

Experiment [1] deals with T1, GTP-loaded KRAS4b (amino acids 1-169) G12C/C118S protein (Homo sapiens, UniProt P01116, C118S/G12C).
T1 construct: KRAS4b (amino acids 1-169) G12C/C118S protein; made in house
Briefly: Covalent cysteine 12 modification by MALDI-TOF MS, GTP-loaded KRAS G12C. It counts as binding. The following applies: 15 minutes reaction time point. The essentials:
(§1)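 KRAS4b 1-169 G12C/C118S loaded with GDP, GppNHp or GTP was used at 1 μM in 20 mM HEPES, 150 mM NaCl, 1 mM MgCl2, pH 7.3, and incubated with compound (5 mM DMSO stock) at room temperature in the dark. % modification at 15 min is adduct peak height over total protein peak heights by linear-mode MALDI-TOF.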

Experiment [2] concerns the target T2, GDP-loaded KRAS4b (amino acids 1-169) G12C/C118S protein (Homo sapiens, UniProt P01116, C118S/G12C).
T2 construct: KRAS4b (amino acids 1-169) G12C/C118S protein; made in house
The experiment in a line: Covalent cysteine 12 modification by MALDI-TOF MS, GDP-loaded KRAS G12C. It counts as binding. The following applies: 15 minutes reaction time point. The essentials: as §1

The target in experiment [3] is T3, GppNHp-loaded KRAS4b (amino acids 1-169) G12C/C118S protein (Homo sapiens, UniProt P01116, C118S/G12C).
T3 construct: KRAS4b (amino acids 1-169) G12C/C118S protein; made in house
Briefly: Covalent cysteine 12 modification by MALDI-TOF MS, GppNHp-loaded KRAS G12C. The following applies: 15 minutes reaction time point. It counts as binding. The essentials:
as §1

Another experiment deals with pERK in NCI-H358 cells. Briefly: Cell-based pERK HTRF assay. The note with it: Homo sapiens, NCI-H358, 0.5 h, 30 min incubation, read-out: pERK in NCI-H358 cell inhibition IC50. In short, it runs like this:
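Cells seeded at 4×10^4/well in RPMI with 10% FBS, then next day treated for 30 min with a 9-point, 3-fold series from 75 μM top concentration at 0.25% DMSO. Lysates were read for pERK by HTRF (d2/Eu cryptate antibodies) after 4–24 h at room temperature, emission at 615 nm.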
In general terms: TR-FRET usually uses a lanthanide donor and a delayed reading to cut background.

Experiment [4] deals with T4, Avi-KRAS G12C (1-169) GppNHp/RAF1 RBD-3×FLAG (52-151) (Homo sapiens, UniProt P01116, G12C).
T4 construct: Avi-KRAS G12C (1-169) GppNHp/RAF1 RBD-3×FLAG (52-151)
The experiment in a line: Raf1 RBD-KRAS G12C-GppNHp disruption (protein:protein interaction HTRF assay). It counts as biochemical. The essentials: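 HTRF measuring disruption of 50 nM Avi-KRAS G12C (1-169) loaded with GppNHp binding RAF1 RBD-3×FLAG (52-151), in pH 7.5 Tris buffer with 5 mM MgCl2, 0.1% BSA, 10% DMSO. KRAS preincubated with compound 1 h, then RBD 1 h, then detection reagents 1 h, all at room temperature. Compound titration 30-0.02 μM; activity expressed as percent of DMSO control.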

As for `C=CC(=O)N1CC[C@@H](Oc2nc(OC[C@@]34CCCN3C[C@H](F)C4)nc3cc(-c4ccc(F)c5sc(N)c(C#N)c45)ccc23)[C@H]1C` [Compound 103], in experiment [1], the “GTP-KRAS G12C percent of modification” value is “C (10%≤modification <50%)”. In experiment [2], the “GDP-KRAS G12C percent of modification” value is “A (percent of modification ≥70%)”. Further, the “GppNHp-KRAS G12C percent of modification” value in experiment [3] is recorded as “B (50≤percent of modification <70%)”. In addition, the IC50 (in general, the point on the concentration scale where inhibition reaches its midpoint) was at most 100 nM in the experiment with pERK in NCI-H358 cells and at most 500 nM in experiment [4].
Taken in the same sequence, the figures for `C=CC(=O)N1C[C@H](Oc2nc(OC[C@@]34CCCN3C[C@H](F)C4)nc3c(F)c(-c4ccc(F)c5sc(N)c(C#N)c45)ccc23)[C@@H](F)C1` [Compound 77] were “A (percent of modification ≥70%)”, “A (percent of modification ≥70%)”, “A (percent of modification ≥70%)”, at most 100 nM and at most 500 nM.
For `C=CC(=O)N1CC[C@@H](Oc2nc(OC[C@@]34CCCN3C[C@H](F)C4)nc3c(F)c(-c4ccc(F)c5sc(N)c(C#N)c45)ncc23)C1` [Compound 56], in that order: “B (50≤percent of modification <70%)”, “A (percent of modification ≥70%)”, “A (percent of modification ≥70%)”, at most 100 nM and at most 500 nM.
Taken in the same sequence, the figures for `C=CC(=O)N1C[C@H](Oc2nc(OC[C@@]34CCCN3C[C@H](F)C4)nc3c(F)c(-c4ccc(F)c5sc(N)c(C#N)c45)ncc23)[C@@H](F)C1` [Compound 75] were “A (percent of modification ≥70%)”, “A (percent of modification ≥70%)”, “A (percent of modification ≥70%)”, at most 100 nM and at most 500 nM.
With `C=CC(=O)N1CC[C@@H](Oc2nc(OC[C@@]34CCCN3C[C@H](F)C4)nc3c(Cl)c(-c4ccc(F)c5sc(N)c(C#N)c45)ncc23)[C@@H]1COC` [Compound 129], the “GTP-KRAS G12C percent of modification” value in experiment [1] is reported as “C (10%≤modification <50%)”. Besides, in experiment [2], the “GDP-KRAS G12C percent of modification” value was “B (50≤percent of modification <70%)”. Besides, in experiment [3], the “GppNHp-KRAS G12C percent of modification” value is given as “A (percent of modification ≥70%)”. The figures for the IC50 (with pERK in NCI-H358 cells; in experiment [4]) were 100 to 1000 nM and at most 500 nM, respectively.
For `C=CC(=O)N1C[C@@H](F)[C@@H](Oc2nc(OC[C@@]34CCCN3C[C@H](F)C4)nc3cc(-c4ccc(F)c5sc(N)c(C#N)c45)c(C(F)(F)F)cc23)C1` [Compound 50], in that order: “B (50≤percent of modification <70%)”, “B (50≤percent of modification <70%)”, “A (percent of modification ≥70%)”, at most 100 nM and at most 500 nM.
As for `C=CC(=O)N1CC[C@@H](Oc2nc(OC[C@@]34CCCN3C[C@H](F)C4)nc3c(Cl)c(-c4ccc(F)c5sc(N)c(C#N)c45)c(C#N)cc23)[C@H]1C` [Compound 105], the “GTP-KRAS G12C percent of modification” value in experiment [1] is given as “B (50≤percent of modification <70%)”. For the same compound, in experiment [2], the “GDP-KRAS G12C percent of modification” value is reported as “B (50≤percent of modification <70%)”. Also, the “GppNHp-KRAS G12C percent of modification” value in experiment [3] was “A (percent of modification ≥70%)”. The IC50 in the experiment on pERK in NCI-H358 cells is at most 100 nM; in experiment [4] it was at most 500 nM.
Consider `C=CC(=O)N1CC[C@@H](Oc2nc(OC[C@@]34CCCN3C[C@H](F)C4)nc3c(F)c(-c4ccc(F)c5sc(N)c(C#N)c45)c(C(F)(F)F)cc23)[C@H]1CO` [Compound 65], for which the “GTP-KRAS G12C percent of modification” value in experiment [1] is reported as “B (50≤percent of modification <70%)”. Further, in experiment [2], the “GDP-KRAS G12C percent of modification” value is listed as “B (50≤percent of modification <70%)”. In experiment [3], the “GppNHp-KRAS G12C percent of modification” value is listed as “A (percent of modification ≥70%)”. Moreover, the IC50 in the experiment on pERK in NCI-H358 cells is at most 100 nM; in experiment [4], at most 500 nM.
As to `C=CC(=O)N1CC[C@@H](Oc2nc(OC[C@@]34CCCN3C[C@H](F)C4)nc3c(F)c(-c4ccc(F)c5sc(N)c(C#N)c45)c(F)cc23)C1` [Compound 52], the “GTP-KRAS G12C percent of modification” value in experiment [1] is listed as “D (percent of modification <10%)”. For the same compound, the “GDP-KRAS G12C percent of modification” value in experiment [2] is reported as “D (percent of modification <10%)”. Also, the “GppNHp-KRAS G12C percent of modification” value in experiment [3] is “D (percent of modification <10%)”. For the same compound, the IC50 is over 1000 nM in the experiment with pERK in NCI-H358 cells and 5000 to 20000 nM in experiment [4].
